In ChEMBL document CHEMBL3352085, “In vitro evaluation of potential bitterness-masking terpenoids from the Canada goldenrod (Solidago canadensis)” (J Nat Prod, 2014):

Target: T1, Taste receptor type 2 member 31 (Homo sapiens, UniProt P59538)
T1 sequence (P59538 whole entry): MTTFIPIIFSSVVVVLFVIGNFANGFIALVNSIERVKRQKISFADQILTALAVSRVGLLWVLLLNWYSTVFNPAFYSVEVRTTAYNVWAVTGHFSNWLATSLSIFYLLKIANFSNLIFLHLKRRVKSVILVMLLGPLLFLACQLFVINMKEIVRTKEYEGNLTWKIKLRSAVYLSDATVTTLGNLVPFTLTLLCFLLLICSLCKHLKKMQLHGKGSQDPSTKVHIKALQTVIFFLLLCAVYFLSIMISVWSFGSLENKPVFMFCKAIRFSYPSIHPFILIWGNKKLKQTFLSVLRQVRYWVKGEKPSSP
Assay: Antagonist activity at human TAS2R31 expressed in HEK-293T cells stably expressing Galpha16gust44 assessed as inhibition receptor response to saccharin by fluorescence assay
Format: cell-based

Compound | IC50 [µM]
C=C1CC[C@H]2C(C)(C)[C@@H](OC(C)=O)CC[C@]2(C)[C@H]1CC/C(C)=C/C(=O)O | 8
CC(=O)O[C@H]1CC[C@]2(C)[C@@H](CC/C(C)=C/C(=O)O)C(C)=CC[C@H]2C1(C)C | > 25
